We go through five molecules from patent EP4624463A1, “SPIRO DERIVATIVE AS KIF18A INHIBITOR” (Insilico Medicine IP Limited, priority 2022, dated 2024).

This assay concerns the target T1, KIF18A (Homo sapiens, UniProt Q8NI77).
T1 sequence (Q8NI77 1-898): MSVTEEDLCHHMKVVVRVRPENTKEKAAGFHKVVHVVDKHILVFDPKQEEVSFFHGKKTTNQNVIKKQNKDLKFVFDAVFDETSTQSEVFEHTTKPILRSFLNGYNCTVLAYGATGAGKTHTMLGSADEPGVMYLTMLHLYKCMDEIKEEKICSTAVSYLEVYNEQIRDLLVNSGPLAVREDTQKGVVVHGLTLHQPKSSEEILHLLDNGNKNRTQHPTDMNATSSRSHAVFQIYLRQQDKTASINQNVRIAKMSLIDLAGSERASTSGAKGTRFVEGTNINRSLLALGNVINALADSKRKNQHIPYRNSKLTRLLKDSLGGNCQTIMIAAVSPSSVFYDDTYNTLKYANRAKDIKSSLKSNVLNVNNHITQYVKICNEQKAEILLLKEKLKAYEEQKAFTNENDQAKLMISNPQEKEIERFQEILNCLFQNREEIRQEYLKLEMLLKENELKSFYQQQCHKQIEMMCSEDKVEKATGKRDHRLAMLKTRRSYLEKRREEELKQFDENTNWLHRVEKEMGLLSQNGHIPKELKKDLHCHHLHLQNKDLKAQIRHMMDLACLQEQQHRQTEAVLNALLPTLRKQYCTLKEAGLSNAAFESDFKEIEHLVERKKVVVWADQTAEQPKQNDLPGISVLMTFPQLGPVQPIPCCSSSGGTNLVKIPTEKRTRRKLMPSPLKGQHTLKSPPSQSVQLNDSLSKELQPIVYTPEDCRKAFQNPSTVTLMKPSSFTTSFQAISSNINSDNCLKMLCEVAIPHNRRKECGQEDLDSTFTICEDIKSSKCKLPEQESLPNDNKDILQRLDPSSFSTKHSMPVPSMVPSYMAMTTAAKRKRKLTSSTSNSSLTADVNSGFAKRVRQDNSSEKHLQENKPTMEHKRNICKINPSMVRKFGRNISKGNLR
Description: KIF18A enzyme inhibition activity assay (ADP-Glo). The note with it: ADP-Glo kit, porcine tubulin, ATP; 10 concentration points, 3-fold serial dilution; 25°C. In kind it is biochemical. The protocol:
Embodiment 6: Biological example: KIF18A enzyme inhibition activity assay
2) Steps: • 2.1 Preparation of enzyme protein buffer solution • 2.2 Activity screening • a) 40 µL of compound solution was added to a 384-well dilution plate; • b) A 3-fold serial dilution was performed to obtain 10 concentration points; • c) 0.1 µL of compound solution was transferred into a 384-well plate; • d) 5 µL of enzyme reaction solution was added and centrifuged at 1,000 RPM for 1 minute; • e) The reaction took place at 25°C for 15 minutes; • f) 5 µL of ATP reaction solution was added; • g) The reaction took place at 25°C for 60 minutes; • h) 10 µL of ADP-Glo reagent was added and centrifuged at 1,000 RPM for 1 minute; • i) The reaction took place at 25°C for 60 minutes; • j) 20 µL of detection reagent was added and centrifuged at 1,000 RPM for 1 minute; • k) The reaction took place at 25°C for 60 minutes; • l) The Envision 2104 plate reader was used to measure […]. 3) Data analysis • 3.1 Fluorescence signal values were obtained from the readings of each well • 3.2 Calculation of IC50 Concentration-response curve fitting and IC50 determination were performed using GraphPad Prism software with a four-parameter logistic regression model.
Background: ADP-Glo turns the ADP formed in a reaction into a luminescent signal.
Take `Cc1cc(N2CC3(CCC4(CC4)CC3)c3cc(NS(=O)(=O)CCO)ccc3C2=O)nc(N2CCC(F)(F)CC2)n1` [EX02, N-{2-[2-(4,4-Difluorohexahydropyridin-1-yl)-6-methylpyrimidin-4-yl]-1-oxo-2,3-dihydro-1H-spiro[isoquinoline-4,6'-spiro[2.5]octane]-6-yl}-2-hydroxyethanesulfonamide]: the half-maximal inhibitory concentration (IC50) – broadly, the concentration at which inhibition is half-maximal – was 38 nM.
`O=C1c2ccc(NS(=O)(=O)CCO)cc2C2(CCCCC2)CN1c1cccc(N2CCOCC2)n1` [EX01, 2-Hydroxy-N-{2'-[6-(1,4-oxazinane-4-yl)pyridin-2-yl]-1'-oxo-2',3'-dihydro-1'H-spiro[cyclohexane-1,4'-isoquinoline]-6'-yl} ethanesulfonamide]: 2030 nM corresponded to half-maximal inhibition (IC50).
As to `O=C1c2ccc(NS(=O)(=O)CCO)cc2C2(CCC3(CC3)CC2)CN1c1ccc(=O)n(C2CC(F)(F)C2)n1` [EX05, N-{2-[1-(3,3-Difluorocyclobutyl)-6-oxo-1,2-diazacyclohexanecarbonate-3-yl]-1-oxo-2,3-dihydro-1H-spiro[isoquinoline-4,6'-spiro[2.5]octane]-6-yl}-2-hydroxyethanesulfonamide], half-maximal inhibition (IC50) required 8.2 nM.
With `C[C@@H]1CN(c2cccc(N3CC4(CCC5(CC5)CC4)c4cc(NS(=O)(=O)CCO)ccc4C3=O)n2)CCO1` [EX04, 2-Hydroxy-N-(2-{6-[(2R)-2-methyl-1,4-oxazinane-4-yl]pyridin-2-yl}-1-oxo-2,3-dihydro-1H-spiro[isoquinoline-4,6'-spiro[2.5]octane]-6-yl)ethanesulfonamide], the 50% inhibitory concentration (IC50) was 107 nM.
Take `Cc1cc(N2CC3(CCC(C)(C)CC3)c3cc(NS(=O)(=O)CCO)ccc3C2=O)nc(N2CCC(F)(F)CC2)n1` [EX03, N-{2'-[2-(4,4-difluorohexahydropyridin-1-yl)-6-methylpyrimidin-4-yl]-1,1-dimethyl-1'-oxo-2',3'-dihydro-1'H-spiro[cyclohexane-4,4'-isoquinoline]-6'-yl}-2-hydroxyethanesulfonamide]: 44 nM corresponded to half-maximal inhibition (IC50).
